Data on 13 compounds can be found in patent US5451600A, “Substituted tetrahydrobenzopyrrolylfuranoic acid derivatives as phospholipase A2 inhibitors” (Hoffmann-La Roche Inc., priority 1994, dated 1995).

Assay [1] concerns the target T1, PLA2 activity in human synovial fluid (HSF) (Homo sapiens, UniProt P14555).
T1 construct: Synovial fluid was obtained from patients with rheumatoid arthritis; from tissue; host or cells: cell-depleted synovial fluid of patients with rheumatoid arthritis
T1 sequence (P14555 21-144): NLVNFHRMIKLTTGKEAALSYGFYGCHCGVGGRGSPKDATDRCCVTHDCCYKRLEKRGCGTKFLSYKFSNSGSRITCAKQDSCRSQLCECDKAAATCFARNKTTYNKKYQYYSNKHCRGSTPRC
Nature of the assay: Phospholipase A2 (PLA2) enzymatic assay - % Inhibition of HSF-PLA2. To be noted: for inhibition at 5 µM: read-out: % Inhib. of HSF-PLA2 at 5 μM. Format: biochemical. The source says: 1, Phospholipase A2 (PLA2) enzymatic assay - % Inhibition of HSF-PLA2
PLA2 assay procedure described by Hope et al., Inflammation 14:543-559 (1.990) was utilized to measure the inhibitory activity of the invention (inhibitor) against PLA2 activity in human synovial fluid (HSF). Synovial fluid was obtained from patients with rheumatoid arthritis. The assay procedure measured the release of [1-^14 C]oleic acid from the sn-2 position of phospholipids in autoclaved Escherichia coli previously grown in media containing [1-^14 C]oleic acid. The standard assay reaction conditions included 1×10^9 Escherichia coil (10,000 dpm ^14 C), 0.15% (v/v) cell-depleted HSF, (which was equivalent to 66 μg protein/mL) 2 mM CaCl2, 150 mM NaCl, 50 mM sodium (N-[2-hydroxyethyl] piperazine-N'-[2-ethanesulfonate]) (HEPES) buffer (pH 7.3), 1% dimethyl sulfoxide (DMSO) and various concentrations of inhibitor in a total volume of 0.5 ml. Inhibitors were dissolved in DMSO and added. The reaction was initiated by addition of HSF, incubated for 30 min at 37° C. and then stopped by addition of 2.5 ml of chloroform/methanol (1:1.5, v/v). The total lipids were extracted by the method of Bligh, E. G., and Dyer, W. J, Can. J. Biochem. Physiol. 37:911-917 (1959) by the further addition of 0.5 mL of chloroform and 1 mL of water with mixing. The lipid extract was redissolved in chloroform/methanol (9:1, v/v) containing 10 ug of carrier oleic acid. The oleic acid was separated from phospholipids by thin layer chromatography using gel-impregnated glass fiber sheets (ITLC type SG sheets). The sheets were preactivated by heating at 110° C. for 30 min. The lipid extract was applied to the sheets and chromatographed for 6 minutes, using hexane/acetic acid (100:1, v/v). The positions on the sheet containing oleic acid and phospholipids were visualized by exposure to iodine vapor and located by comparison to standards. The oleic acid and phospholipid zones were cut from the sheets, shaken individually with 2 ml of ethanol/water (80:20, v/v) and 15 ml of Aquasol, then counted for [^14 C] radioactivity (dpm). PLA2 activity, expressed as percent hydrolysis, was calculated from the formula: [formula] and was corrected for nonenzymatic hydrolysis of the substrate. Percent inhibition due to the presence of drug was calculated from the formula: [formula]
When various concentrations of a Compound of Formula I were tested, the percent inhibition at each concentration was plotted as log concentration (abscissa) versus percent inhibition (ordinate) and the IC50 was determined from this plot.

The subject of assay [2] is carrageenan-induced paw edema in rats. Description: Carrageenan-induced paw edema model of inflammation. In kind it is in vivo. The note with it: rat; for inhibition in vivo at 10 mg/kg: 10 mg/Kg ip; for inhibition in vivo at 10 mg/kg / inhibition in vivo at 100 mg/kg / inhibition in vivo at 20 mg/kg / inhibition in vivo at 30 mg/kg: 2 hr, read-out: Carrageenan ind. paw edema % Inhib. 2 hr; for inhibition in vivo at 100 mg/kg: 100 mg/Kg po.

A further assay concerns cellular PLA2. Nature of the assay: Inhibition of Cellular Phospholipase A2 (A23187-stimulated macrophages). Format: cell-based. The note with it: 5 μM; rat peritoneal macrophages, A-23187 stimulated. The procedure:
II. Inhibition of Cellular Phospholipase A2. - % Inhibition of Cellular PLA2
Resident macrophages were obtained from rats by peritoneal lavage with phosphate buffered saline minus Ca2^++ and Mg2^++ (PBS). Cells were washed 3 times with PBS and resuspended in Dulbecco's Modified Eagle's Medium (GiBco) containing L-glutamine low D-glucose (1000 mg/L), and sodium pyruvate (110 mg/L), supplemented with 10% fetal calf serum. Cells were counted on a Coulter ZBI cell counter and then resuspended to a concentration of 6×10^6 cells/1.5 ml. The cell suspension (1.5 ml culture dishes (35 mm) and the cells were allowed to adhere to the dishes for 90 minutes at 37° C. Dishes were washed 3 times with PBS to remove non-adherent cells. [^14 C]arachidonic acid ([^14 C]-AA, approximately […], were added to the cells (1 uCi/dish) and allowed to incorporate for 120 minutes. Medium containing unincorporated [^14 C]-AA was removed and the cell layer was again washed 3 times with PBS. Inhibitors were dissolved in dimethylsulfoxide (DMSO) and added directly to the macrophages in Hank's Balanced Salt Solution (GiBco) phosphate-buffered, pH 7.4) to obtain the desired final concentration. Cells were incubated with drug or DMSO for 30 minutes at 37° C. and were then stimulated with calcium-ionophore A-23187 (0.75 uM) for 20 minutes. The extracellular medium was removed and the [^14 C] radioactivity released into this medium from AA metabolism was measured by liquid scintillation spectroscopy. The amounts of LTB4 and PGE2 were measured in the extracellular medium by radio immunoassay with specific antisera. The effects of inhibitor were measured as percent inhibition of A23187- stimulated AA metabolite release (^14 C release, PGE2 and LTB4 production) (control) which were calculated from the formula: [formula] IC50 's were calculated as described in the HSF-PLA2 assay.

Where two headings read alike, the source gives them in different places.

On to `CCCCCCCCn1c2c(c3cc(/C=C(\C)c4ccc(C(=O)O)o4)ccc31)CCCC2(C)C` [Example 53, (E)-5-[1-methyl-2-(1,2,3,4-tetrahydro-1,1-dimethyl-9-octyl-9H-dibenzo[b,d]pyrrol-6-yl)ethenyl]-2-furancarboxylic acid], for which the inhibition at 5 µM in assay [1] came to 73%. Moreover, in assay [2], the inhibition in vivo at 10 mg/kg came to 68% and the inhibition in vivo at 100 mg/kg was determined as 55%. In addition, the “% Inhib. of cellular PLA2 at 5 μM” value in the assay on cellular PLA2 came out at 63%.
In the same order, the values of `CCCCCCCCn1c2c(c3cc(CCc4ccc(C(=O)O)o4)ccc31)CCCC2` [Example 55, 5-[2-(1,2,3,4-tetrahydro-9-octyl-9H-dibenzo[b,d]pyrrol-6-yl)ethyl]-2-furancarboxylic acid] are 73%, 59%, 49% and 91%.
Turning to `CCCCCCCCn1c2c(c3ccc(Oc4ccc(C(=O)O)o4)cc31)CCCC2` [Example 133, 5-[(1,2,3,4-tetrahydro-9-octyl-9H-dibenzo[b,d]pyrrol-7-yl)oxy]-2-furancarboxylic acid], the inhibition at 5 µM in assay [1] worked out at 31%. In assay [2], the inhibition in vivo at 100 mg/kg was 58%. The “% Inhib. of cellular PLA2 at 5 μM” value in the assay on cellular PLA2 amounted to 85%.
Take `CCCCCCCCn1c2c(c3cc(Oc4ccc(C(=O)O)o4)ccc31)CCCC2(C)C` [Example 134, 5-[(1,2,3,4-tetrahydro-1,1-dimethyl-9-octyl-9H-dibenzo[b,d]pyrrol-6-yl)oxy]-2-furancarboxylic acid]: in assay [1], the inhibition at 5 µM came out at 86%. Also, in assay [2] (20 mg/Kg ip), the inhibition in vivo at 20 mg/kg was found to be 36%. Besides, the inhibition in vivo at 100 mg/kg in assay [2] was 48%. In addition, the “% Inhib. of cellular PLA2 at 5 μM” value in the assay on cellular PLA2 is given as 94%.
`O=C(O)c1ccc(Oc2ccc3c(c2)c2c(n3Cc3ccc(Cl)cc3)CCCC2)o1` [Example 139, 5-[[1,2,3,4-tetrahydro-9-(4-chlorophenyl)methyl-9H-dibenzo[b,d]pyrrol-6-yl]oxy]-2-furancarboxylic acid]: in assay [1], the inhibition at 5 µM worked out at 31%. For the same compound, in assay [2] (30 mg/Kg ip), the inhibition in vivo at 30 mg/kg amounted to 68%. For the same compound, the “% Inhib. of cellular PLA2 at 5 μM” value in the assay on cellular PLA2 came to 100%.
For the compound `CCCCCCCCCn1c2c(c3cc(Oc4ccc(C(=O)O)o4)ccc31)CCCC2` [Example 142, 5-[(1,2,3,4-tetrahydro-9-nonyl-9H-dibenzo[b,d]pyrrol-6-yl)oxy]-2-furancarboxylic acid], the inhibition at 5 µM in assay [1] turned out to be 83%. Further, in assay [2] (30 mg/Kg po), the inhibition in vivo at 30 mg/kg was 48%. In addition, the “% Inhib. of cellular PLA2 at 5 μM” value with cellular PLA2 stood at 90%.
The compound `O=C(O)c1ccc(Oc2ccc3c(c2)c2c(n3CCCCc3ccccc3)CCCC2)o1` [Example 145, 5-[[1,2,3,4-tetrahydro-9-(4-phenylbutyl)-9H-dibenzo[b,d]pyrrol-6-yl]oxy]-2-furancarboxylic acid] came in with an IC50 in assay [1] (human synovial fluid PLA2, 30 min at 37° C., pH 7.3) of 4.8 µM. Besides, in assay [1], the inhibition at 5 µM worked out at 47%. Moreover, in assay [2] (30 mg/Kg ip), the inhibition in vivo at 30 mg/kg worked out at 43%. In the assay with cellular PLA2, the “% Inhib. of cellular PLA2 at 5 μM” value is listed as 99%.
Regarding `O=C(O)c1ccc(Oc2ccc3c(c2)c2c(n3Cc3ccc(F)cc3)CCCC2)o1` [Example 146, 5-[[9-[(4-fluorophenyl)methyl]-1,2,3,4-tetrahydro-9H-dibenzo[b,d]pyrrol-6-yl]oxy]-2-furancarboxylic acid], the inhibition at 5 µM in assay [1] turned out to be 37%. Besides, the inhibition in vivo at 30 mg/kg in assay [2] (30 mg/Kg ip) was determined as 51%. Moreover, the inhibition in vivo at 100 mg/kg in assay [2] was found to be 33%. In addition, the “% Inhib. of cellular PLA2 at 5 μM” value in the assay on cellular PLA2 was 98%.
As to `O=C(O)c1ccc(Oc2ccc3c(c2)c2c(n3Cc3cccc(F)c3)CCCC2)o1` [Example 147, 5-[[9-[(3-fluorophenyl)methyl]-1,2,3,4-tetrahydro-9H-dibenzo[b,d]pyrrol-6-yl]oxy]-2-furancarboxylic acid], the inhibition at 5 µM in assay [1] is 37%. For the same compound, the inhibition in vivo at 30 mg/kg in assay [2] (30 mg/Kg ip) is 49%. For the same compound, the “% Inhib. of cellular PLA2 at 5 μM” value in the assay with cellular PLA2 came to 94%.
With `COc1ccc(Cn2c3c(c4cc(Oc5ccc(C(=O)O)o5)ccc42)CCCC3)cc1` [Example 149, 5-[[1,2,3,4-tetrahydro-9-[(4-methoxyphenyl)methyl]-9H-dibenzo[b,d]pyrrol-6-yl]oxy]-2-furancarboxylic acid], in assay [1], the inhibition at 5 µM stood at 62%. In addition, the inhibition in vivo at 30 mg/kg in assay [2] (30 mg/Kg ip) was 48%. Besides, the “% Inhib. of cellular PLA2 at 5 μM” value in the assay with cellular PLA2 was determined as 99%.
In the same order, the values of `COc1ccc(Cn2c3c(c4cc(Oc5ccc(C(=O)O)o5)ccc42)CCCC3)cc1OC` [Example 150, 5-[[1,2,3,4-tetrahydro-9-[(3,4-dimethoxyphenyl)methyl]-9H-dibenzo[b,d]pyrrol-6-yl]oxy]-2-furancarboxylic acid] are 42%, 45% and 96%.
For the compound `CCCCCCCCn1c2c(c3cc(C(=O)c4ccc(C(=O)O)o4)ccc31)CCCC2` [Example 157, 5-[(1,2,3,4-tetrahydro-9-octyl-9H-dibenzo[b,d]pyrrol-6-yl)carbonyl]-2-furancarboxylic acid], the inhibition at 5 µM in assay [1] amounted to 40%. Besides, in assay [2] (20 mg/Kg ip), the inhibition in vivo at 20 mg/kg is 41%. In assay [2], the inhibition in vivo at 100 mg/kg worked out at 44%. Moreover, the “% Inhib. of cellular PLA2 at 5 μM” value in the assay on cellular PLA2 was 68%.
On to “(E)-5-[2-(1,2,3,4-tetrahydro-3,3dimethyl-9-octyl-9 H-dibenzo[b,d]-pyrrol-6yl)ethenyl]-2-furancarboxylic acid [Example 45]”, for which the “% Inhib. of HSF-PLA2 at 5 μM” value in assay [1] (5 μM) was determined as 86%. Moreover, the “Carrageenan ind. paw edema % Inhib. 2 hr” value in assay [2] (20 mg/Kg ip) turned out to be 46%. Moreover, the “% Inhib. of cellular PLA2 at 5 μM” value with cellular PLA2 is 53%.
